Source: PubChem BioAssay (NCI)
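Test compounds were applied to cells in 96-well plates for 48 hours at 5 doses. Definition used: TGI = concentration required for complete inhibition of growth.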 Where a SMILES comes first, the peptide text is derived from it. The star is where a group is joined. Boc = CC(C)(C)OC(=O)*; OBn = c1ccc(CO*)cc1; Bn = c1ccc(C*)cc1

Columns and labels:
Experiment in all cases: NCI anticancer screen, dose series, 48 h
A498 renal = test system: A498 renal
LOX IMVI melanoma = test system: LOX IMVI melanoma
M14 melanoma = test system: M14 melanoma
MDA-MB-231 breast = test system: MDA-MB-231 breast
NCI-H460 lung = test system: NCI-H460 lung
OVCAR-3 ovarian = test system: OVCAR-3 ovarian
RPMI-8226 leukemia = test system: RPMI-8226 leukemia
SF-539 CNS = test system: SF-539 CNS
SN12C renal = test system: SN12C renal
SNB-75 CNS = test system: SNB-75 CNS
SW-620 colon = test system: SW-620 colon
MALME-3M melanoma = test system: MALME-3M melanoma

Structure (SMILES) | TGI (A498 renal) | TGI (LOX IMVI melanoma) | TGI (M14 melanoma) | TGI (MDA-MB-231 breast) | TGI (NCI-H460 lung) | TGI (OVCAR-3 ovarian) | TGI (RPMI-8226 leukemia) | TGI (SF-539 CNS) | TGI (SN12C renal) | TGI (SNB-75 CNS) | TGI (SW-620 colon) | TGI (MALME-3M melanoma)
COc1cc(C(C)(C)C)c(OC(=O)/C=C/C(=O)O/C=C/[N+](=O)[O-])c(C(C)(C)C)c1 | 96.6 µM | 75.6 µM | 65.6 µM | 82.1 µM | > 100 µM | > 100 µM | > 100 µM | > 100 µM | > 100 µM | > 100 µM | > 100 µM | 
COc1ccc(/C=N/N=C(N)N)c(C(=O)O)c1OC | > 100 µM |  | > 100 µM |  | > 100 µM | > 100 µM | > 100 µM | > 100 µM | > 100 µM | > 100 µM | > 100 µM | 
O=c1[nH]nc(Nc2ccccc2)c2nnn(Cc3ccccc3)c12 | > 100 µM | > 100 µM | > 100 µM | > 100 µM | > 100 µM |  |  | > 100 µM | > 100 µM | 85.3 µM | > 100 µM | 
NC1=CN2c3ccccc3N(CC(=O)N3CCOCC3)C2C=C1 (configuration not stated) | > 100 µM | > 100 µM | > 100 µM | > 100 µM | > 100 µM |  |  | > 100 µM | > 100 µM | > 100 µM | > 100 µM | > 100 µM
COC(CO[Si](C)(C)N[Si](C)(C)OCC(OC)c1ccccc1)c1ccccc1 (configuration not stated) | > 100 µM | > 100 µM | > 100 µM |  | > 100 µM | > 100 µM | > 100 µM |  | > 100 µM | > 100 µM | > 100 µM | 
O=C(OCc1ccccc1[N+](=O)[O-])N1c2ccccc2[C@@]23O[C@]24CCC[C@H]3C#C/C=C\C#C[C@H]14 | > 100 µM | > 100 µM | > 100 µM | > 100 µM | > 100 µM | > 100 µM |  | > 100 µM | 68.2 µM |  | > 100 µM | > 100 µM
COc1c2c(cc3oc(=O)ccc13)OC(C)(C)C=C2 |  | 41.8 µM | 48.4 µM | 76.2 µM | 62.2 µM | > 125 µM | 87.6 µM | > 125 µM | 100 µM | 56.6 µM | 84.6 µM | 87.8 µM
c1ccc2c3c(c(N4CCNCC4)nc2c1)CCCC3 | 27.6 µM | 27.2 µM | 19 µM | 27.4 µM | 29.4 µM | 40.1 µM |  | 23.2 µM | 31.1 µM | 27 µM | 35 µM | 37.3 µM
CCOC(=O)Cn1c(=O)c2cc(C)cc3c(Cl)nc4c(OC)c(OC)cc1c4c32 |  | > 100 µM | > 100 µM | > 100 µM | > 100 µM | > 100 µM | > 100 µM | > 100 µM |  | > 100 µM | > 100 µM | > 100 µM
O=c1[nH]c(=O)n(COCCO)cc1-c1ccccc1 |  | > 100 µM | > 100 µM | > 100 µM | > 100 µM | > 100 µM | > 100 µM |  | > 100 µM |  | > 100 µM | > 100 µM
O=C(O)CC(Cc1ccccc1)C(=O)O (configuration not stated) | > 100 µM | > 100 µM | > 100 µM |  | > 100 µM | > 100 µM | > 100 µM | > 100 µM | > 100 µM |  | > 100 µM | > 100 µM
Cc1ccc(N=c2oc3c(ccc4ccccc43)nc2Nc2ccc(C)cc2)cc1 | > 100 µM | > 100 µM |  | > 100 µM | > 100 µM |  | > 100 µM | > 100 µM | > 100 µM | > 100 µM | > 100 µM | > 100 µM
CN(C)CCNc1ccccn1 | > 100 µM | > 100 µM | > 100 µM | > 100 µM | > 100 µM | > 100 µM |  |  | > 100 µM |  | > 100 µM | > 100 µM
O=C(CSCC(=O)N/N=C/c1ccc(F)cc1)N/N=C/c1ccc(F)cc1 | > 100 µM |  | > 100 µM | > 100 µM | > 100 µM |  | > 100 µM | > 100 µM | > 100 µM | > 100 µM | > 100 µM | > 100 µM
CSCC[C@@H](NC(=O)[C@H](CC(C)C)NC(=O)C(Cc1cnc[nH]1)NC(=O)CNC(=O)[C@@H](NC(=O)[C@H](C)NC(=O)[C@H](Cc1cn(C=O)c2ccccc12)NC(=O)[C@H](CCC(N)=O)NC(=O)[C@@H](N)CC(N)=O)C(C)C)C(N)=O (some centres not stated) | > 100 µM | > 100 µM |  |  | > 100 µM | > 100 µM | > 100 µM | > 100 µM | > 100 µM | > 100 µM | > 100 µM | > 100 µM
c1ccc2c(c1)N=c1ccccc1=P21c2ccccc2Nc2ccccc21 | 5.56 µM | 4.96 µM | 5.67 µM |  | 10.7 µM | 1.57 µM | 0.616 µM | 9.24 µM | 13.5 µM | 4.67 µM | 13 µM | 0.868 µM
COC(=O)c1ccc2c(c1)CC1(C2)Cc2ccc3c(c2C1)CCC3 (configuration not stated) |  | 60.7 µM | 13 µM | 22.1 µM |  | > 100 µM | 74.3 µM | > 100 µM | > 100 µM | > 100 µM | > 100 µM | 60.5 µM
CC(C)OCC(O)COc1cc(=O)oc2ccccc12 (configuration not stated) |  | > 100 µM | > 100 µM | > 100 µM | > 100 µM | > 100 µM | > 100 µM |  | > 100 µM |  | > 100 µM | > 100 µM
O=C1OS2(OC(=O)c3cccc4cccc2c34)c2ccccc21 (configuration not stated) | > 100 µM | > 100 µM | > 100 µM | > 100 µM |  | > 100 µM | > 100 µM | > 100 µM | > 100 µM |  | > 100 µM | > 100 µM
O=C1N2CCN=C2c2ccccc2C1(O)c1ccccc1 (configuration not stated) | > 100 µM | > 100 µM | > 100 µM | > 100 µM | > 100 µM |  | > 100 µM | > 100 µM | > 100 µM | > 100 µM | > 100 µM | 
CC(C)CC(NC(=O)C(CCC(=O)OCc1ccccc1)NC(=O)OC(C)(C)C)C(=O)NC(COCc1ccccc1)C(=O)NC(Cc1ccccc1)C(=O)O (configuration not stated) (Boc-E(OBn)LS(Bn)F-OH; configuration not given here) | > 100 µM |  | > 100 µM | > 100 µM | > 100 µM |  | > 100 µM |  | > 100 µM | > 100 µM | > 100 µM | > 100 µM
